According to ChEMBL document CHEMBL1201861, “Genomics of Drug Sensitity in Cancer screening data, Wellcome Trust Sanger Institute”:

Experiments:
Assay in all cases: cells
D-247MG = assay type: functional, cell-based; settings: Homo sapiens
Description: SANGER: Inhibition of human D-247MG cell growth in a cell viability assay.

ES5 = assay type: functional, cell-based, Homo sapiens; settings: Homo sapiens, ES5;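 note: growth inhibition of human ES5 cells, read out by a cell viability assay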
Description: SANGER: Inhibition of human ES5 cell growth in a cell viability assay.

EW-18 = assay type: functional, cell-based, Homo sapiens; settings: Homo sapiens, EW-18; read-out: IC50;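 note: growth inhibition of EW-18 cells, read out by a cell viability assay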
Description: SANGER: Inhibition of human EW-18 cell growth in a cell viability assay.

GAK = assay type: functional, cell-based, Homo sapiens; settings: Homo sapiens, GAK;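 note: cell growth inhibition read out by a cell viability assay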
Description: SANGER: Inhibition of human GAK cell growth in a cell viability assay.

GI-1 = assay type: functional, cell-based, Homo sapiens; settings: Homo sapiens, GI-1;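 note: growth inhibition of human GI-1 cells, measured with a cell viability readout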
Description: SANGER: Inhibition of human GI-1 cell growth in a cell viability assay.

GR-ST = assay type: functional, cell-based, Homo sapiens; settings: Homo sapiens, GR-ST
Description: SANGER: Inhibition of human GR-ST cell growth in a cell viability assay.

HAL-01 = assay type: functional, cell-based, Homo sapiens; settings: Homo sapiens, HAL-01;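 note: growth inhibition of human HAL-01 cells, read out with a cell viability assay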
Description: SANGER: Inhibition of human HAL-01 cell growth in a cell viability assay.

HCC1187 = assay type: functional, cell-based, Homo sapiens; settings: Homo sapiens, HCC1187;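 note: growth inhibition of HCC1187 cells, read out with a cell viability assay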
Description: SANGER: Inhibition of human HCC1187 cell growth in a cell viability assay.

HCC2157 = assay type: functional, cell-based, Homo sapiens; settings: Homo sapiens, HCC2157;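 note: growth inhibition of the cancer cell line, read out as cell viability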
Description: SANGER: Inhibition of human HCC2157 cell growth in a cell viability assay.

KP-N-YS = assay type: functional, cell-based, Homo sapiens; settings: Homo sapiens, KP-N-YS;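 note: cell viability assay measuring inhibition of cell line growth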
Description: SANGER: Inhibition of human KP-N-YS cell growth in a cell viability assay.

L-363 = assay type: functional, cell-based, Homo sapiens; settings: Homo sapiens, L-363
Description: SANGER: Inhibition of human L-363 cell growth in a cell viability assay.

L-428 = assay type: functional, cell-based, Homo sapiens; settings: Homo sapiens, L-428
Description: SANGER: Inhibition of human L-428 cell growth in a cell viability assay.

LB1047-RCC = assay type: functional, cell-based, Homo sapiens; settings: Homo sapiens, LB1047-RCC;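 note: inhibition of cell growth, determined with a cell viability assay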
Description: SANGER: Inhibition of human LB1047-RCC cell growth in a cell viability assay.

LB771-HNC = assay type: functional, cell-based; settings: Homo sapiens;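 note: growth inhibition of LB771-HNC human cells, read out with a cell viability assay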
Description: SANGER: Inhibition of human LB771-HNC cell growth in a cell viability assay.

LXF-289 cell line = assay type: functional, cell-based; settings: Homo sapiens
Description: SANGER: Inhibition of human LXF-289 cell growth in a cell viability assay.

MHH-NB-11 = assay type: functional, cell-based, Homo sapiens; settings: Homo sapiens, MHH-NB-11;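 note: growth inhibition of human MHH-NB-11 cells, read out by a cell viability assay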
Description: SANGER: Inhibition of human MHH-NB-11 cell growth in a cell viability assay.

MOLT-16 = assay type: functional, cell-based, Homo sapiens; settings: Homo sapiens, MOLT-16;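 note: growth inhibition of human MOLT-16 cells, read out with a cell viability assay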
Description: SANGER: Inhibition of human MOLT-16 cell growth in a cell viability assay.

MV4-11 = assay type: functional, cell-based, Homo sapiens, MV-4-11; settings: Homo sapiens, MV4-11;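 note: cell viability readout measuring growth inhibition of human MV-4-11 cells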
Description: SANGER: Inhibition of human MV-4-11 cell growth in a cell viability assay.

NB5 = assay type: functional, cell-based, Homo sapiens; settings: Homo sapiens, NB5;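 note: growth inhibition of NB5 cells, read out as cell viability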
Description: SANGER: Inhibition of human NB5 cell growth in a cell viability assay.

NB6 = assay type: functional, cell-based, Homo sapiens; settings: Homo sapiens, NB6;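 note: growth inhibition of NB6 cells, read out by a cell viability assay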
Description: SANGER: Inhibition of human NB6 cell growth in a cell viability assay.

NCI-H1092 = assay type: functional, cell-based, Homo sapiens; settings: Homo sapiens, NCI-H1092;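 note: cell growth inhibition measured with a cell viability assay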
Description: SANGER: Inhibition of human NCI-H1092 cell growth in a cell viability assay.

NCI-H1299 = assay type: functional, cell-based; settings: Homo sapiens;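 note: growth inhibition of human NCI-H1299 cells, read out by a cell viability assay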
Description: SANGER: Inhibition of human NCI-H1299 cell growth in a cell viability assay.

NCI-H1355 = assay type: functional, cell-based, Homo sapiens; settings: Homo sapiens, NCI-H1355;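 note: growth inhibition of human NCI-H1355 cells, read out by a cell viability assay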
Description: SANGER: Inhibition of human NCI-H1355 cell growth in a cell viability assay.

NCI-H226 = assay type: functional, cell-based, Homo sapiens; settings: Homo sapiens, NCI-H226;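 note: cell viability read-out used to gauge growth inhibition of the cells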
Description: SANGER: Inhibition of human NCI-H226 cell growth in a cell viability assay.

NCI-H526 = assay type: functional, cell-based, Homo sapiens; settings: Homo sapiens, NCI-H526;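 note: growth inhibition of the human NCI-H526 cell line, measured by a cell viability assay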
Description: SANGER: Inhibition of human NCI-H526 cell growth in a cell viability assay.

NCI-H720 = assay type: functional, cell-based, Homo sapiens; settings: Homo sapiens, NCI-H720;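 note: growth inhibition of human NCI-H720 cells determined by a cell viability assay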
Description: SANGER: Inhibition of human NCI-H720 cell growth in a cell viability assay.

NCI-N87 = assay type: functional, cell-based; settings: Homo sapiens;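 note: growth inhibition of human NCI-N87 cells, read out with a cell viability assay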
Description: SANGER: Inhibition of human NCI-N87 cell growth in a cell viability assay.

NEC8 = assay type: functional, cell-based, Homo sapiens; settings: Homo sapiens, NEC8;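 note: growth inhibition of human NEC8 cells, read out by a cell viability assay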
Description: SANGER: Inhibition of human NEC8 cell growth in a cell viability assay.

OCI-AML2 = assay type: functional, cell-based, Homo sapiens; settings: Homo sapiens, OCI-AML2;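 note: growth inhibition of OCI-AML2 cells, read out with a cell viability assay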
Description: SANGER: Inhibition of human OCI-AML2 cell growth in a cell viability assay.

OCUB-M = assay type: functional, cell-based; settings: Homo sapiens;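 note: growth inhibition of the cancer cell line, read out through a cell viability assay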
Description: SANGER: Inhibition of human OCUB-M cell growth in a cell viability assay.

OVCAR-4 = assay type: functional, cell-based, Homo sapiens; settings: Homo sapiens, OVCAR-4;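 note: growth inhibition of human OVCAR-4 cells, measured with a cell viability assay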
Description: SANGER: Inhibition of human OVCAR-4 cell growth in a cell viability assay.

PSN1 = assay type: functional, cell-based, Homo sapiens; settings: Homo sapiens, PSN1;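 note: suppression of growth of human PSN1 cells, read out by a cell viability assay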
Description: SANGER: Inhibition of human PSN1 cell growth in a cell viability assay.

QIMR-WIL = assay type: functional, cell-based, Homo sapiens; settings: Homo sapiens, QIMR-WIL;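 note: growth inhibition of QIMR-WIL cells, read out with a cell viability assay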
Description: SANGER: Inhibition of human QIMR-WIL cell growth in a cell viability assay.

RH-1 = assay type: functional, cell-based, Homo sapiens; settings: Homo sapiens, RH-1;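 note: growth inhibition of human RH-1 cells, read out with a cell viability assay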
Description: SANGER: Inhibition of human RH-1 cell growth in a cell viability assay.

RXF 393 = assay type: functional, cell-based, Homo sapiens; settings: Homo sapiens, RXF 393;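 note: growth inhibition of human RXF 393 cells, read out with a cell viability assay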
Description: SANGER: Inhibition of human RXF393 cell growth in a cell viability assay.

SCC-15 = assay type: functional, cell-based, Homo sapiens; settings: Homo sapiens, SCC-15;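 note: growth inhibition of SCC-15 cells, read out with a cell viability assay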
Description: SANGER: Inhibition of human SCC-15 cell growth in a cell viability assay.

SCH = assay type: functional, cell-based, Homo sapiens; settings: Homo sapiens, SCH;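 note: growth inhibition of human SCH cells, read out in a cell viability assay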
Description: SANGER: Inhibition of human SCH cell growth in a cell viability assay.

SJSA-1 = assay type: functional, cell-based, Homo sapiens; settings: Homo sapiens, SJSA-1;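 note: growth inhibition of human SJSA-1 cells, read out through a cell viability measurement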
Description: SANGER: Inhibition of human SJSA-1 cell growth in a cell viability assay.

SK-NEP-1 = assay type: functional, cell-based, Homo sapiens; settings: Homo sapiens, SK-NEP-1;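 note: growth inhibition of human SK-NEP-1 cells, read out by a cell viability assay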
Description: SANGER: Inhibition of human SK-NEP-1 cell growth in a cell viability assay.

SK-PN-DW = assay type: functional, cell-based, Homo sapiens; settings: Homo sapiens, SK-PN-DW;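 note: growth inhibition measured with a viability assay on these cells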
Description: SANGER: Inhibition of human SK-PN-DW cell growth in a cell viability assay.

SNB-75 = assay type: functional, cell-based, Homo sapiens; settings: Homo sapiens, SNB-75;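 note: cell viability assay measuring growth inhibition of human SNB-75 cells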
Description: SANGER: Inhibition of human SNB75 cell growth in a cell viability assay.

SW 962 = assay type: functional, cell-based, Homo sapiens; settings: Homo sapiens, SW 962;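 note: growth inhibition of human SW962 cells, read out by a cell viability assay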
Description: SANGER: Inhibition of human SW962 cell growth in a cell viability assay.

8-MG-BA = assay type: functional, cell-based, Homo sapiens; settings: Homo sapiens, 8-MG-BA;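 note: growth inhibition of 8-MG-BA cells, read out with a cell viability assay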
Description: SANGER: Inhibition of human 8-MG-BA cell growth in a cell viability assay.

BV-173 = assay type: functional, cell-based, Homo sapiens; settings: Homo sapiens, BV-173
Description: SANGER: Inhibition of human BV-173 cell growth in a cell viability assay.

TE-5 = assay type: functional, cell-based, Homo sapiens; settings: Homo sapiens, TE-5;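 note: inhibition of cell growth, read out by a cell viability assay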
Description: SANGER: Inhibition of human TE-5 cell growth in a cell viability assay.

TE-9 = assay type: functional, cell-based, Homo sapiens; settings: Homo sapiens, TE-9;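 note: cell growth inhibition, measured with a cell viability readout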
Description: SANGER: Inhibition of human TE-9 cell growth in a cell viability assay.

TGBC1TKB = assay type: functional, cell-based, Homo sapiens; settings: Homo sapiens, TGBC1TKB;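 note: growth inhibition of TGBC1TKB cells, read out by a cell viability assay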
Description: SANGER: Inhibition of human TGBC1TKB cell growth in a cell viability assay.

U-87 MG = assay type: functional, cell-based, Homo sapiens, U-87MG ATCC; settings: Homo sapiens, U-87 MG;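 note: growth inhibition of the cells measured with a viability assay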
Description: SANGER: Inhibition of human U-87-MG cell growth in a cell viability assay.

no-10 = assay type: functional, cell-based, Homo sapiens; settings: Homo sapiens;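 note: growth inhibition of no-10 cells, read out with a cell viability assay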
Description: SANGER: Inhibition of human no-10 cell growth in a cell viability assay.

CCRF-CEM = assay type: functional, cell-based, Homo sapiens; settings: Homo sapiens, CCRF-CEM;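 note: inhibition of CCRF-CEM cell growth, measured by a cell viability assay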
Description: SANGER: Inhibition of human CCRF-CEM cell growth in a cell viability assay.

Structure (SMILES): COC(=O)[C@H](CCSC)NC(=O)c1ccc(NC[C@@H](N)CS)cc1-c1ccccc1
- IC50 (D-247MG): > 1.02 µM
- IC50 (ES5): > 1.02 µM
- IC50 (EW-18): > 1.02 µM
- IC50 (GAK): > 1.02 µM
- IC50 (GI-1): > 1.02 µM
- IC50 (GR-ST): > 1.02 µM
- IC50 (HAL-01): > 1.02 µM
- IC50 (HCC1187): > 1.02 µM
- IC50 (HCC2157): > 1.02 µM
- IC50 (KP-N-YS): > 1.02 µM
- IC50 (L-363): > 1.02 µM
- IC50 (L-428): > 1.02 µM
- IC50 (LB1047-RCC): > 1.02 µM
- IC50 (LB771-HNC): > 1.02 µM
- IC50 (LXF-289 cell line): > 1.02 µM
- IC50 (MHH-NB-11): > 1.02 µM
- IC50 (MOLT-16): > 1.02 µM
- IC50 (MV4-11): > 1.02 µM
- IC50 (NB5): > 1.02 µM
- IC50 (NB6): > 1.02 µM
- IC50 (NCI-H1092): > 1.02 µM
- IC50 (NCI-H1299): > 1.02 µM
- IC50 (NCI-H1355): > 1.02 µM
- IC50 (NCI-H226): > 1.02 µM
- IC50 (NCI-H526): > 1.02 µM
- IC50 (NCI-H720): > 1.02 µM
- IC50 (NCI-N87): > 1.02 µM
- IC50 (NEC8): > 1.02 µM
- IC50 (OCI-AML2): > 1.02 µM
- IC50 (OCUB-M): > 1.02 µM
- IC50 (OVCAR-4): > 1.02 µM
- IC50 (PSN1): > 1.02 µM
- IC50 (QIMR-WIL): > 1.02 µM
- IC50 (RH-1): > 1.02 µM
- IC50 (RXF 393): > 1.02 µM
- IC50 (SCC-15): > 1.02 µM
- IC50 (SCH): > 1.02 µM
- IC50 (SJSA-1): > 1.02 µM
- IC50 (SK-NEP-1): > 1.02 µM
- IC50 (SK-PN-DW): > 1.02 µM
- IC50 (SNB-75): > 1.02 µM
- IC50 (SW 962): > 1.02 µM
- IC50 (8-MG-BA): > 1.02 µM
- IC50 (BV-173): > 1.02 µM
- IC50 (TE-5): > 1.02 µM
- IC50 (TE-9): > 1.02 µM
- IC50 (TGBC1TKB): > 1.02 µM
- IC50 (U-87 MG): > 1.02 µM
- IC50 (no-10): > 1.02 µM
- IC50 (CCRF-CEM): > 1.02 µM

Structure (SMILES): Cc1ccc(-n2nc(C(C)(C)C)cc2NC(=O)Nc2ccc(OCCN3CCOCC3)c3ccccc23)cc1 [DORAMAPIMOD]
- IC50 (D-247MG): > 10 µM
- IC50 (ES5): > 10 µM
- IC50 (EW-18): > 10 µM
- IC50 (GI-1): > 10 µM
- IC50 (GR-ST): > 10 µM
- IC50 (HAL-01): > 10 µM
- IC50 (HCC1187): > 10 µM
- IC50 (HCC2157): > 10 µM
- IC50 (KP-N-YS): > 10 µM
- IC50 (L-363): > 10 µM
- IC50 (L-428): > 10 µM
- IC50 (LB1047-RCC): > 10 µM
- IC50 (LB771-HNC): > 10 µM
- IC50 (LXF-289 cell line): > 10 µM
- IC50 (MHH-NB-11): > 10 µM
- IC50 (MOLT-16): > 10 µM
- IC50 (MV4-11): > 10 µM
- IC50 (NB5): > 10 µM
- IC50 (NB6): > 10 µM
- IC50 (NCI-H1092): > 10 µM
- IC50 (NCI-H1299): > 10 µM
- IC50 (NCI-H1355): > 10 µM
- IC50 (NCI-H226): > 10 µM
- IC50 (NCI-H526): > 10 µM
- IC50 (NCI-H720): > 10 µM
- IC50 (NCI-N87): > 10 µM
- IC50 (NEC8): > 10 µM
- IC50 (OCI-AML2): > 10 µM
- IC50 (OCUB-M): > 10 µM
- IC50 (OVCAR-4): > 10 µM
- IC50 (PSN1): > 10 µM
- IC50 (QIMR-WIL): > 10 µM
- IC50 (RH-1): > 10 µM
- IC50 (RXF 393): > 10 µM
- IC50 (SCC-15): > 10 µM
- IC50 (SCH): > 10 µM
- IC50 (SJSA-1): > 10 µM
- IC50 (SK-NEP-1): > 10 µM
- IC50 (SK-PN-DW): > 10 µM
- IC50 (SNB-75): > 10 µM
- IC50 (SW 962): > 10 µM
- IC50 (8-MG-BA): > 10 µM
- IC50 (BV-173): > 10 µM
- IC50 (TE-5): > 10 µM
- IC50 (TE-9): > 10 µM
- IC50 (TGBC1TKB): > 10 µM
- IC50 (U-87 MG): > 10 µM
- IC50 (no-10): > 10 µM
- IC50 (CCRF-CEM): > 10 µM

Structure (SMILES): O=C1NC(=O)c2c1c(-c1ccccc1Cl)cc1[nH]c3ccc(O)cc3c21
- IC50 (D-247MG): > 2 µM
- IC50 (ES5): > 2 µM
- IC50 (EW-18): > 2 µM
- IC50 (GAK): > 2 µM
- IC50 (GI-1): > 2 µM
- IC50 (GR-ST): 0.975 µM
- IC50 (HAL-01): 1.16 µM
- IC50 (HCC1187): > 2 µM
- IC50 (HCC2157): 1.57 µM
- IC50 (KP-N-YS): > 2 µM
- IC50 (L-363): 1.53 µM
- IC50 (L-428): > 2 µM
- IC50 (LB771-HNC): > 2 µM
- IC50 (MHH-NB-11): > 2 µM
- IC50 (MOLT-16): 1.42 µM
- IC50 (MV4-11): 0.809 µM
- IC50 (NB5): > 2 µM
- IC50 (NB6): > 2 µM
- IC50 (NCI-H1092): > 2 µM
- IC50 (NCI-H1299): > 2 µM
- IC50 (NCI-H1355): > 2 µM
- IC50 (NCI-H226): > 2 µM
- IC50 (NCI-H526): > 2 µM
- IC50 (NCI-H720): 1.7 µM
- IC50 (NCI-N87): > 2 µM
- IC50 (OCI-AML2): > 2 µM
- IC50 (OCUB-M): > 2 µM
- IC50 (PSN1): > 2 µM
- IC50 (QIMR-WIL): 0.135 µM
- IC50 (RH-1): > 2 µM
- IC50 (RXF 393): > 2 µM
- IC50 (SCC-15): > 2 µM
- IC50 (SCH): > 2 µM
- IC50 (SJSA-1): > 2 µM
- IC50 (SK-NEP-1): > 2 µM
- IC50 (SK-PN-DW): > 2 µM
- IC50 (SNB-75): > 2 µM
- IC50 (SW 962): > 2 µM
- IC50 (8-MG-BA): 1.55 µM
- IC50 (BV-173): 0.434 µM
- IC50 (TE-5): > 2 µM
- IC50 (TE-9): > 2 µM
- IC50 (TGBC1TKB): > 2 µM
- IC50 (U-87 MG): > 2 µM
- IC50 (no-10): > 2 µM
- IC50 (CCRF-CEM): > 2 µM
